# Experimental data published in ChEMBL document CHEMBL3885861, “Open TG-GATES”.
# Species: Rattus norvegicus
# Assay: Open TG-GATES - Regimen: Daily Repeat
# Format: toxicity, organism-based, Sprague-Dawley
# Design: regimen Daily Repeat, gender Male, age 6 weeks
# Conditions: in vivo, po, 750 mg/kg, route gavage, dose level High; for APTT / Bas / Eos / Fbg / Hb / Ht / Lym / MCH / MCHC / MCV / Mono / Neu / PT / Plat / RBC / Ret / WBC: tissue Blood; for KIDNEY_L / KIDNEY_R / KIDNEY_TOTAL: tissue Kidney; for LIVER: tissue Liver; for A/G / ALP / ALT / AST / BUN / CRE / Ca / Cl / DBIL / GLC / IP / K / LDH / Na / PL / RALB / TBIL / TC / TG / TP / gamma-GTP: tissue Plasma
smiles,measurement,setting,value
CN(C/C=C/C#CC(C)(C)C)Cc1cccc2ccccc12 [TERBINAFINE],TERMINAL_BW,"72 h, time 3 day",217.7 g
same,APTT,"72 h, time 3 day",22.6 s
same,Bas,"72 h, time 3 day",0.8%
same,Eos,"72 h, time 3 day",0.8%
same,Fbg,"72 h, time 3 day",200.6 mg/dL
same,Hb,"72 h, time 3 day",14.1 g/dL
same,Ht,"72 h, time 3 day",41.1%
same,Lym,"72 h, time 3 day",82.8%
same,MCH,"72 h, time 3 day",20.9 pg
same,MCHC,"72 h, time 3 day",34.2%
same,MCV,"72 h, time 3 day",61 fL
same,Mono,"72 h, time 3 day",2.6%
same,Neu,"72 h, time 3 day",13%
same,PT,"72 h, time 3 day",12.5 s
same,Plat,"72 h, time 3 day",137.3 x10_4/uL
same,RBC,"72 h, time 3 day",673.8 x10_4/ul
same,Ret,"72 h, time 3 day",4.5%
same,WBC,"72 h, time 3 day",64.8 x10_2/uL
same,KIDNEY_L,"72 h, time 3 day",1 g
same,KIDNEY_R,"72 h, time 3 day",1.1 g
same,KIDNEY_TOTAL,"72 h, time 3 day",2.1 g
same,LIVER,"72 h, time 3 day",11.4 g
same,A/G,"72 h, time 3 day",2
same,ALP,"72 h, time 3 day",748.6 IU/L
same,ALT,"72 h, time 3 day",34.6 IU/L
same,AST,"72 h, time 3 day",62.6 IU/L
same,BUN,"72 h, time 3 day",10.6 mg/dL
same,CRE,"72 h, time 3 day",0.4 mg/dL
same,Ca,"72 h, time 3 day",9.5 mg/dL
same,Cl,"72 h, time 3 day",102.8 meq/L
same,DBIL,"72 h, time 3 day",0.09 mg/dL
same,GLC,"72 h, time 3 day",172 mg/dL
same,IP,"72 h, time 3 day",9.2 mg/dL
same,K,"72 h, time 3 day",3.8 meq/L
same,LDH,"72 h, time 3 day",207.4 IU/L
same,Na,"72 h, time 3 day",140.8 meq/L
same,PL,"72 h, time 3 day",123.2 mg/dL
same,RALB,"72 h, time 3 day",3.6 g/dL
same,TBIL,"72 h, time 3 day",0.2 mg/dL
same,TC,"72 h, time 3 day",81 mg/dL
same,TG,"72 h, time 3 day",19.2 mg/dL
same,TP,"72 h, time 3 day",5.4 g/dL
same,gamma-GTP,"72 h, time 3 day",1.8 IU/L
same,TERMINAL_BW,"[…], time 7 day",187.9 g
same,TERMINAL_BW,"[…], time 14 day",255.9 g
same,TERMINAL_BW,"[…], time 28 day",360.5 g
same,APTT,"[…], time 7 day",45.7 s
same,Bas,"[…], time 7 day",1%
same,Eos,"[…], time 7 day",0.6%
same,Fbg,"[…], time 7 day",187.6 mg/dL
same,Hb,"[…], time 7 day",15.9 g/dL
same,Ht,"[…], time 7 day",45.2%
same,Lym,"[…], time 7 day",77.6%
same,MCH,"[…], time 7 day",21.1 pg
same,MCHC,"[…], time 7 day",35.2%
same,MCV,"[…], time 7 day",59.8 fL
same,Mono,"[…], time 7 day",4.6%
same,Neu,"[…], time 7 day",15.8%
same,PT,"[…], time 7 day",30.8 s
same,Plat,"[…], time 7 day",146 x10_4/uL
same,RBC,"[…], time 7 day",755 x10_4/ul
same,Ret,"[…], time 7 day",0.3%
same,WBC,"[…], time 7 day",82.6 x10_2/uL
same,APTT,"[…], time 14 day",21.4 s
same,Bas,"[…], time 14 day",0.6%
same,Eos,"[…], time 14 day",0.6%
same,Fbg,"[…], time 14 day",198.4 mg/dL
same,Hb,"[…], time 14 day",13.8 g/dL
same,Ht,"[…], time 14 day",40.2%
same,Lym,"[…], time 14 day",70.4%
same,MCH,"[…], time 14 day",20.7 pg
same,MCHC,"[…], time 14 day",34.3%
same,MCV,"[…], time 14 day",60.3 fL
same,Mono,"[…], time 14 day",3.2%
same,Neu,"[…], time 14 day",24.4%
same,PT,"[…], time 14 day",11.9 s
same,Plat,"[…], time 14 day",119.4 x10_4/uL
same,RBC,"[…], time 14 day",667 x10_4/ul
same,Ret,"[…], time 14 day",5.8%
same,WBC,"[…], time 14 day",116.6 x10_2/uL
same,APTT,"[…], time 28 day",26 s
same,Bas,"[…], time 28 day",0.4%
same,Eos,"[…], time 28 day",1%
same,Fbg,"[…], time 28 day",211.6 mg/dL
same,Hb,"[…], time 28 day",14 g/dL
same,Ht,"[…], time 28 day",40.2%
same,Lym,"[…], time 28 day",76.4%
same,MCH,"[…], time 28 day",19.8 pg
same,MCHC,"[…], time 28 day",34.8%
same,MCV,"[…], time 28 day",57.1 fL
same,Mono,"[…], time 28 day",3.4%
same,Neu,"[…], time 28 day",18.4%
same,PT,"[…], time 28 day",12.8 s
same,Plat,"[…], time 28 day",110.7 x10_4/uL
same,RBC,"[…], time 28 day",705.6 x10_4/ul
same,Ret,"[…], time 28 day",2.9%
same,WBC,"[…], time 28 day",115.7 x10_2/uL
same,KIDNEY_L,"[…], time 7 day",1.1 g
same,KIDNEY_R,"[…], time 7 day",1.1 g
same,KIDNEY_TOTAL,"[…], time 7 day",2.2 g
same,KIDNEY_L,"[…], time 14 day",1.2 g
same,KIDNEY_R,"[…], time 14 day",1.3 g
same,KIDNEY_TOTAL,"[…], time 14 day",2.5 g
same,KIDNEY_L,"[…], time 28 day",1.6 g
same,KIDNEY_R,"[…], time 28 day",1.7 g
same,KIDNEY_TOTAL,"[…], time 28 day",3.3 g
same,LIVER,"[…], time 7 day",12.4 g
same,LIVER,"[…], time 14 day",16.5 g
same,LIVER,"[…], time 28 day",21.9 g
same,A/G,"[…], time 7 day",1.9
same,ALP,"[…], time 7 day",692.8 IU/L
same,ALT,"[…], time 7 day",52 IU/L
same,AST,"[…], time 7 day",81.4 IU/L
same,BUN,"[…], time 7 day",14.6 mg/dL
same,CRE,"[…], time 7 day",0.5 mg/dL
same,Ca,"[…], time 7 day",9.1 mg/dL
same,Cl,"[…], time 7 day",103.6 meq/L
same,DBIL,"[…], time 7 day",0.1 mg/dL
same,GLC,"[…], time 7 day",141 mg/dL
same,IP,"[…], time 7 day",7 mg/dL
same,K,"[…], time 7 day",4.6 meq/L
same,LDH,"[…], time 7 day",214.2 IU/L
same,Na,"[…], time 7 day",142.4 meq/L
same,PL,"[…], time 7 day",145 mg/dL
same,RALB,"[…], time 7 day",3.5 g/dL
same,TBIL,"[…], time 7 day",0.2 mg/dL
same,TC,"[…], time 7 day",96.8 mg/dL
same,TG,"[…], time 7 day",21.4 mg/dL
same,TP,"[…], time 7 day",5.3 g/dL
same,gamma-GTP,"[…], time 7 day",2.6 IU/L
same,A/G,"[…], time 14 day",1.7
same,ALP,"[…], time 14 day",536.8 IU/L
same,ALT,"[…], time 14 day",37 IU/L
same,AST,"[…], time 14 day",60.2 IU/L
same,BUN,"[…], time 14 day",15.8 mg/dL
same,CRE,"[…], time 14 day",0.4 mg/dL
same,Ca,"[…], time 14 day",10.4 mg/dL
same,Cl,"[…], time 14 day",103 meq/L
same,DBIL,"[…], time 14 day",0.074 mg/dL
same,GLC,"[…], time 14 day",183 mg/dL
same,IP,"[…], time 14 day",7.8 mg/dL
same,K,"[…], time 14 day",4 meq/L
same,LDH,"[…], time 14 day",151.8 IU/L
same,Na,"[…], time 14 day",142.8 meq/L
same,PL,"[…], time 14 day",136.4 mg/dL
same,RALB,"[…], time 14 day",3.8 g/dL
same,TBIL,"[…], time 14 day",0.1 mg/dL
same,TC,"[…], time 14 day",82 mg/dL
same,TG,"[…], time 14 day",20.4 mg/dL
same,TP,"[…], time 14 day",6.1 g/dL
same,gamma-GTP,"[…], time 14 day",1.2 IU/L
same,A/G,"[…], time 28 day",1.8
same,ALP,"[…], time 28 day",601.2 IU/L
same,ALT,"[…], time 28 day",50 IU/L
same,AST,"[…], time 28 day",65.4 IU/L
same,BUN,"[…], time 28 day",14.8 mg/dL
same,CRE,"[…], time 28 day",0.5 mg/dL
same,Ca,"[…], time 28 day",10.2 mg/dL
same,Cl,"[…], time 28 day",103.2 meq/L
same,DBIL,"[…], time 28 day",0.08 mg/dL
same,GLC,"[…], time 28 day",197.2 mg/dL
same,IP,"[…], time 28 day",8 mg/dL
same,K,"[…], time 28 day",3.8 meq/L
same,LDH,"[…], time 28 day",178.8 IU/L
same,Na,"[…], time 28 day",142.4 meq/L
same,PL,"[…], time 28 day",146.4 mg/dL
same,RALB,"[…], time 28 day",3.9 g/dL
same,TBIL,"[…], time 28 day",0.2 mg/dL
same,TC,"[…], time 28 day",88.4 mg/dL
same,TG,"[…], time 28 day",18.2 mg/dL
same,TP,"[…], time 28 day",6.1 g/dL
same,gamma-GTP,"[…], time 28 day",1.6 IU/L
